Assay results reported in publication PMC10892093 (Pharmaceutics, 2024).

Tests used:
UGT1A9 = target: T1, UGT1A9 (Homo sapiens, UniProt O60656); experiment: Inhibition of R-oxazepam glucuronidation in rUGT1A9 microsomes (UGT-overexpressing HEK293); type: biochemical
T1 construct: expressed in transfected cells; microsomal fraction
T1 sequence (O60656 26-530): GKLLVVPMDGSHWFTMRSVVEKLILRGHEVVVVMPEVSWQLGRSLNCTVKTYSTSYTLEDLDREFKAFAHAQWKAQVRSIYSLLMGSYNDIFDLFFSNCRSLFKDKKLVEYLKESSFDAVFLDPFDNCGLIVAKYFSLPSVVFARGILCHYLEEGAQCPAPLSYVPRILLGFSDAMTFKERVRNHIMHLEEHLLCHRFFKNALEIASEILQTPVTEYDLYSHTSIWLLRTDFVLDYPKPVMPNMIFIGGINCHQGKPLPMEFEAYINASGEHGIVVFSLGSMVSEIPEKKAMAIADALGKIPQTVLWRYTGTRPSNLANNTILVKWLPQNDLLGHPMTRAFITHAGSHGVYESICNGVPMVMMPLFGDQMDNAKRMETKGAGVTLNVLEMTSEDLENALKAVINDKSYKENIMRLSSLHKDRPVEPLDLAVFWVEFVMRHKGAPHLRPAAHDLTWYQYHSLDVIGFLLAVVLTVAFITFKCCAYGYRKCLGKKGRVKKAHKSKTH
Description: (§1) Human embryonic kidney cells (HEK293) stably overexpressing the single UGTs 1A9, 2B7, and 2B15 have been previously established and described. Cells were grown in DMEM supplemented with 350 μg/mL of geneticin and 10% FBS and harvested in PBS. Microsomal fractions of UGT-overexpressing cell lines were prepared by differential centrifugation using previously described protocols. Briefly, cell homogenates were prepared by resuspending pelleted cells in PBS, followed by five rounds of freeze–thaw cycles prior to homogenization. Recombinant microsomes (rUGTs) were prepared by centrifuging the cell homogenate at a low speed (9000× g for 30 min) followed by ultracentrifugation (34,000× g for 60 min), with the total protein subsequently determined using a BCA assay. Recombinant microsomes (UGT1A9 and 2B7) and homogenates (UGT2B15) were used for inhibition studies.
(§2) A Waters Corp BEH C18 Acquity UPLC column (1.7 µM, 2.1 × 100 mm) was used at a constant temperature of 40 °C for chromatographic separation. An elution gradient was used for 6.5 min with mobile phases A (5 mM ammonium formate) and B (100% methanol) under the following conditions: 90% A for 0.5 min, followed by a linear gradient for 3 min to 60% A, 1 min at 5% A, and re-equilibration for 1 min at 90% A.
(§3) The reaction was initiated by the addition of 4 mM UDPGA as the cofactor and incubated for 2 h at 37 °C. The reaction was terminated by adding 30 µL of an ice-cold stop solution (acetonitrile/methanol; 1:1). The reaction mixtures were centrifuged at 17,000× g for 30 min at 4 °C, and the supernatant was transferred to UPLC sample glass vial for analysis using UPLC–MS/MS (described above). […] As a positive control for inhibition assays, ketoconazole (10 μM and 100 µM) was used as a potential inhibitor of the UGTs 1A9, 2B7, and 2B15. Reactions containing only the cannabinoid vehicle (3% methanol) and without any inhibitor (cannabinoids) were used as a baseline reaction for 100% enzyme activity, while a reaction without UDPGA was used as a negative control. All experiments were performed in three independent experiments.
(§4) Determination of IC50 and Ki Values. […] The nonspecific binding constants (fu,inc) for cannabinoids in HEK293 microsomes, HLM, and HKM were previously determined and used to calculate the inhibition by unbound (‘free’) cannabinoid in each reaction. A nonlinear regression analysis and the following equation were used to calculate the IC50 values:(1) y = Bottom +Top − Bottom / 1 + 10^x − LogIC50A where ‘Bottom’ is the maximum observed inhibition (lowest percent activity) and ‘Top’ is the minimum observed inhibition (highest percent activity) for a given cannabinoid.

UGT2B7 = target: T2, UGT2B7 (Homo sapiens, UniProt P16662); experiment: Inhibition of R- and S-oxazepam glucuronidation in rUGT2B7 microsomes (UGT-overexpressing HEK293); type: biochemical
T2 construct: expressed in transfected cells; microsomal fraction
T2 sequence (P16662 24-529): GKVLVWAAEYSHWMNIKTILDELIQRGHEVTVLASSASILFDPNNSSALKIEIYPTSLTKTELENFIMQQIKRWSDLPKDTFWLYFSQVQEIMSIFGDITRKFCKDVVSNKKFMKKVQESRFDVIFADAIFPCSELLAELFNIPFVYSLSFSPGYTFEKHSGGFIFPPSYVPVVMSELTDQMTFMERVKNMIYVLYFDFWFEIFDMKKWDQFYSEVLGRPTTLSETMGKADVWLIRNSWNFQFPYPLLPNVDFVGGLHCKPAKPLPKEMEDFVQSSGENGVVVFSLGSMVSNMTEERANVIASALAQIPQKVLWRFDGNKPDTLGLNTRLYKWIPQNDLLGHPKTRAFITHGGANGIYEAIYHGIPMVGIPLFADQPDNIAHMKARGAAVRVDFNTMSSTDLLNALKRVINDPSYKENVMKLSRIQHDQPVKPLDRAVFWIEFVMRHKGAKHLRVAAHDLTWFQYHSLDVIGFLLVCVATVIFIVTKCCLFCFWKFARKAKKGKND
Description: as §1, §2, §3, §4

UGT2B15 = target: T3, UGT2B15 (Homo sapiens, UniProt P54855); experiment: Inhibition of S-oxazepam glucuronidation in rUGT2B15 homogenate/microsomes (UGT-overexpressing HEK293); type: biochemical
T3 construct: expressed in transfected cells; cell homogenate
T3 sequence (P54855 24-530): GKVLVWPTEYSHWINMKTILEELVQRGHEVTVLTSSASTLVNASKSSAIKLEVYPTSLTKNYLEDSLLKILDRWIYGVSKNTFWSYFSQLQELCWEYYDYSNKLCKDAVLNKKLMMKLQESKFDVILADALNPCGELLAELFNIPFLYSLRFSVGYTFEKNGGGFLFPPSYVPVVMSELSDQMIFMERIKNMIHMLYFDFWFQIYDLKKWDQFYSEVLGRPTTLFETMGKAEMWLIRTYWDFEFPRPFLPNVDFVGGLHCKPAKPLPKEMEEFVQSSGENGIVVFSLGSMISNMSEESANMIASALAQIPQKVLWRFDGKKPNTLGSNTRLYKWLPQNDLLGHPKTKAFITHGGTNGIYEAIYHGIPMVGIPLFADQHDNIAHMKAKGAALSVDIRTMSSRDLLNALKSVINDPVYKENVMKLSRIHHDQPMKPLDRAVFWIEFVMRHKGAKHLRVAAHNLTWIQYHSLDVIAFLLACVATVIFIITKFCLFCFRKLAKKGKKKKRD
Description: as §1, §2, §3, §4

[1] = value set for the static model; cited from earlier work
[2] = tested on: human kidney microsomes (HKM); experiment: Inhibition of R- and S-oxazepam glucuronidation in human kidney microsomes; settings: read-out: IC50, oxazepam glucuronidation (marginal or no inhibition)
Description: as §2, §3, §4

[3] = tested on: human liver microsomes (HLM); experiment: Inhibition of R- and S-oxazepam glucuronidation in human liver microsomes; settings: read-out: IC50, oxazepam glucuronidation (marginal or no inhibition)
Description: as §2, §3, §4
The inhibition constant (Ki) was generated from the in vitro IC50 values assuming competitive inhibition (based on the Cheng–Prusoff equation; [49]). Considering that there have been no reports of the irreversible inhibition (e.g., mechanism-based inhibition) of UGTs, competitive inhibition was assumed as the worst-case scenario (highest inhibition) among all feasible types of reversible inhibitions. The substrate concentration used in the incubations was below the reported Km; therefore, the Ki values were predicted using Equation (2):(2) Ki=IC50/S/Km+1 where Km is Michaelis–Menten constant for the substrate, S is the substrate concentration, and IC50 is half-maximal inhibitory concentration.

[4] = rUGT2B7 microsomes, 100 µM cannabinoid

In the case of `CC(=O)N1CCN(c2ccc(OCC3COC(Cn4ccnc4)(c4ccc(Cl)cc4Cl)O3)cc2)CC1` (stereo not drawn) [ketoconazole], the inhibition at 2 h, 100 µM (UGT1A9; human, pH 7.4, probe R,S-oxazepam 4 µM, oxazepam glucuronide formation, rUGT1A9 microsomes, 100 µM ketoconazole, range over the three enzymes) is reported as 49 to 85%, the inhibition at 2 h, 100 µM (UGT2B7; human, pH 7.4, probe R,S-oxazepam 60 µM, oxazepam glucuronide formation, Inhibition of oxazepam glucuronide formation, rUGT2B7 microsomes, 100 µM ketoconazole, range over the three enzymes) is reported as 49 to 85% and the inhibition at 2 h, 100 µM (UGT2B15; human, pH 7.4, probe R,S-oxazepam 12 µM, oxazepam glucuronide formation, rUGT2B15 microsomes, 100 µM ketoconazole, range over the three enzymes) is reported as 49 to 85%.

In the case of `O=C1Nc2ccc(Cl)cc2C(c2ccccc2)=NC1O` (stereo not drawn) [oxazepam, Oxazepam], the “fm (fractional metabolism via glucuronidation)” value [1] is listed as 0.8.

For `CCCCCc1cc(O)c2c(c1)OC(C)(C)[C@@H]1CCC(C(=O)O)=C[C@@H]21` [11-COOH-THC, 11-nor-9-carboxy-Δ^9-tetrahydrocannabinol], the “Inhibition of R-oxazepam glucuronide formation” value (UGT1A9; rUGT1A9 microsomes, 100 µM cannabinoid, vs control without cannabinoid) was 80%, the IC50 (UGT1A9; read-out: IC50, oxazepam glucuronidation (marginal or no inhibition), recombinant UGT microsomes (rUGT1A9)) was > 100 µM and the IC50 [2] was > 100 µM. For the same molecule, the “Inhibition of R-oxazepam glucuronidation” value (UGT2B7; [4]) was 45%, the “Inhibition of S-oxazepam glucuronidation” value (UGT2B7; [4]) was 55% and the IC50 (UGT2B7; read-out: IC50, oxazepam glucuronidation (marginal or no inhibition), recombinant UGT microsomes (rUGT2B7)) was > 100 µM. For the same molecule, the IC50 (UGT2B15; read-out: IC50, oxazepam glucuronidation (marginal or no inhibition), recombinant UGT microsomes (rUGT2B15)) was > 100 µM and the IC50 [3] was > 100 µM.
